Reference: patent US20260271928A1, “CONTROL OF PESTS RESISTANT TO INSECTICIDES” (Syngenta Crop Protection Ag, priority 2023, published 2026)

test system: Resistant Bemisia tabaci; assay: Resistant Bemisia tabaci (rBT); type: in vivo; conditions: biotype Q, field-collected 2000, Almeria, Spain
Experimental: Cotton leaf discs were placed upside down in petri dishes on water agar and treated with the diluted test solutions in a spray chamber. After drying, leaf discs were infested with 10 adult Bemisia tabaci. Dishes were covered with a fabric filter and sealed with a perforated plastic lid. 4 days after treatment samples were assessed for mortality.
Resistant Bemisia tabaci (rBT)
Biotype Q originally field-collected in 2000 from Almeria, Spain. […] The strain carried the mutation L925I in the voltage-gated sodium channel conferring resistance to pyrethroids. It also had higher expression of the p450 CYP6CM1 conferring metabolic resistance to neonicotinoids.

In the case of `CC1(C)[C@H](C(=O)O[C@H](C#N)c2cccc(Oc3ccccc3)c2)[C@@H]1/C=C(\Cl)C(F)(F)F` (racemic) [Lambda-cyhalothrin], the “resistance of the rBT population to the insecticide” value is reported as 40 fold.

test system: Resistant Plutella xylostella; assay: Resistant Plutella xylostella (rPLU); type: in vivo; conditions: collected 2013, Changhua, Taiwan
Experimental: (§1) Chinese cabbage plants were treated with the diluted test solutions in a spray chamber. After drying, the leaves were cut off and placed in petri dishes with wetted filter paper. One day after treatment, the leaves were infested with 10 Plutella xylostella larvae (L3). Samples were assessed 4 days after infestation for mortality and growth regulation.
Resistant Plutella xylostella (rPLU)
A number of target-sites mutations were identified in this strain which confer resistance to pyrethroids (L1014F, T929I), organophosphates and carbamates (mAChE: A298S and G324A), and organochlorines (rdl: A298S), and diamides (ryr: G4546E).

With `CC1(C)[C@H](C(=O)O[C@H](C#N)c2cccc(Oc3ccccc3)c2)[C@@H]1/C=C(\Cl)C(F)(F)F` (racemic) [Lambda-cyhalothrin] the “resistance of the rPLU strain to the insecticide” value (“resistance of the rPLU strain” for short) was greater than 800 fold.
For abamectin, the “resistance of the rPLU strain” value was greater than 200 fold.

Compared with `CCOP(=S)(OCC)Oc1nc(Cl)c(Cl)cc1Cl` [chlorpyrifos], `Cc1cc(C(F)(C(F)(F)F)C(F)(F)F)ccc1NC(=O)c1cccc(I)c1C(=O)NC(C)(C)CS(C)(=O)=O` [flubendiamide] is higher in “resistance of the rPLU strain” value: 100 fold for the first, 300 fold for the second.

same assay, conditions: resistant strain, L3 larvae on Chinese cabbage, assessed 4 days after infestation; 0 = BP80 >200 ppm

For `CCS(=O)(=O)c1c(N2Cc3ncc(C(F)(F)F)cc3C2=O)nc(-c2ccc(C3(C#N)CC3)cc2)n1C` [P77, 1-[4-[5-ethyl-sulfonyl-1-methyl-4-[5-oxo-3-(trifluoromethyl)-7H-pyrrolo[3,4-b]pyridin-6-yl]imidazol-2-yl]phenyl]cyclopro-panecarbonitrile], the “pBP80 r-PLU” value was 5.8.

test system: Plutella xylostella; assay: Plutella xylostella (diamond back moth), larvae, feeding/contact (sPLU); type: in vivo; conditions: sensitive strain, L3 larvae on Chinese cabbage, assessed 4 days after infestation; 0 = BP80 >200 ppm
Experimental: as §1, with “Plutella xylostella (Diamond Back Moth), Larvae, Feeding/Contact (sPLU) Chinese” for “Chinese”

With `CCS(=O)(=O)c1c(N2Cc3ncc(C(F)(F)F)cc3C2=O)nc(-c2ccc(C3(C#N)CC3)cc2)n1C` [P77, 1-[4-[5-ethyl-sulfonyl-1-methyl-4-[5-oxo-3-(trifluoromethyl)-7H-pyrrolo[3,4-b]pyridin-6-yl]imidazol-2-yl]phenyl]cyclopro-panecarbonitrile] the “pBP80 s-PLU” value was 5.8.

target: T1, vesicular acetylcholine transporter (VAChT) (Lucilia sericata, UniProt Z9IC98WFD0); assay: [3H]-A1 radioligand binding and competitive displacement, Lucilia sericata head membrane; conditions: Lucilia head membrane, 9 nM [3H]-A1; read-out: Affinity at the [3H]-A1 binding site, competitive displacement
T1 sequence (Z9IC98WFD0 1-593): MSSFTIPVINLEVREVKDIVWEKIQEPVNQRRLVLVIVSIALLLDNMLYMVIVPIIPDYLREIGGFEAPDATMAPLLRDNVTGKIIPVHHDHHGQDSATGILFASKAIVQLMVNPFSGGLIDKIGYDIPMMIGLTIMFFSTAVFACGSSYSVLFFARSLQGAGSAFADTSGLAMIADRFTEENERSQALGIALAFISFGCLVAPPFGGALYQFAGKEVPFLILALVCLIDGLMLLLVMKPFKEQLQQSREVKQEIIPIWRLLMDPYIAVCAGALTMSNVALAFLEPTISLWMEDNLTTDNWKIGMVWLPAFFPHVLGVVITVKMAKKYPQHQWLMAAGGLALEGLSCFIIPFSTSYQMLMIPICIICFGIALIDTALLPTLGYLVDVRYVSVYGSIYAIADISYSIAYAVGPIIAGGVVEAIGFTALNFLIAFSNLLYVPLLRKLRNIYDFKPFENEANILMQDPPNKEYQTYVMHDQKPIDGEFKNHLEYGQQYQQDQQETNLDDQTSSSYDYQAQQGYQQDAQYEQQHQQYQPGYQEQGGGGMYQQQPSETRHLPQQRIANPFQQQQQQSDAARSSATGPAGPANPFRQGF
Experimental: Methods herein were generally adapted from this publication.
Binding of [^3H]-A1 was measured using Lucilia sericata head membrane suspended in 50 mM Tris HCL buffer (pH7.4) containing 120 mM NaCl, and 100 mM EDTA, at a protein concentration of 1 mg/ml for dispensing into 96 well plates to give 50 μg protein per well. [^3H]-A1 was added to plates as a 37 MBq/ml ethanol stock dissolved in 2.2 ml assay buffer to give an approximate final well concentration of 9 nM. Test compounds were incubated at 25° C. for 90 min with 9 nM [^3H]-A1 (or a range of concentrations for saturation analysis) at either 8 rates (where prepared manually) or 6 or 10 rates where prepared using robotics. The binding incubation was terminated by vacuum filtration through glass fibre filter mats (PerkinElmerFilterMat A, Seer Green, UK), pre-treated with 0.5% polyethyleneimine and mounted on a Tomtec cell harvester. The filters were then washed rapidly with ice-cold water, dried and bound radioactivity measured using an EG&GWallac betaplate scintillation counter after impregnating the filter with solid scintillant (PerkinElmer MeltiLex). Non specific binding was subtracted from the counts at each data point to give the specific binding. The amount of displacement was calculated as a % of the control and the IC50 calculated from a curve fitted using a single-exponential algorithm.
Data was fitted with a single-exponential model.
To identify the insecticidal target-protein for alkylysulfones we examined the ability of a range of ligands with identified target proteins to displace [^3H]-A1 from its site on Lucilia membranes (see Table X3).

Compared with `CCS(=O)(=O)c1cc(C(F)(F)F)cnc1-c1nc2cc(C(F)(F)F)ncc2n1C` [A2], `CCS(=O)(=O)c1cc(C(F)(F)F)cnc1-c1nc2cc(C(F)(F)F)cnc2n1C` [A3] is 3.9-fold lower in IC50: 39 nM for the first, 10 nM for the second.

`CCS(=O)(=O)c1cc(C(F)(F)F)cnc1-c1nnc(-c2cc(C(F)(F)F)ccn2)n1C` [C1] was tested, and the IC50 was 6.3 nM.

same assay, conditions: Lucilia membranes; ligands with identified target proteins

With `Cc1ccc(/N=C/N(C)/C=N/c2ccc(C)cc2C)c(C)c1` [Amitraz] the “[3H]-A1 displacement IC50” value was “Inactive or IC50>”.
In the case of `Cc1cc(Cl)ccc1N=CN(C)C` [Chlordimeform], the “[3H]-A1 displacement IC50” value is reported as “Inactive or IC50>”.

same assay, conditions: Lucilia membranes; ligands with identified target proteins; read-out: [3H]-A1 displacement IC50

First: O=C(c1ccnc(Cl)c1)N1CC2(CCN(C/C=C/c3ccc(Cl)cc3)CC2)c2cc(F)ccc21 [5-F-CASPP]
Second: CNC(=O)O/N=C/C(C)(C)SC [Aldicarb]
The IC50 of the first is lower: 2.3 nM for the first, greater than 52600 nM for the second.

First: Nc1cccc2c1CC(N1CCC(c3ccccc3)CC1)C(O)C2 (centres unmarked) [Aminobenzovesamicol]
Second: CCCCCC[C@H]1C(=O)O[C@H](C)[C@H](NC(=O)c2cccc(NC=O)c2O)C(=O)O[C@@H](C)[C@@H]1OC(=O)CC(C)C [Antimycin A1]
The IC50 of the first is lower: 17.6 nM for the first, greater than 18200 nM for the second.

`CNC(=O)c1cc(Cl)cc(C)c1NC(=O)c1cc(Br)nn1-c1ncccc1Cl` [Chlorantraniliprole] and `CNC(=O)c1cc(C#N)cc(C)c1NC(=O)c1cc(Br)nn1-c1ncccc1Cl` [Cyantraniliprole] cannot be ordered by IC50: greater than 20800 nM for the first, greater than 21200 nM for the second.

`COC(=O)C12Cc3cc(Cl)ccc3C1=NN(C(=O)Nc1ccc(OC(F)(F)F)cc1)CO2` (centres unmarked) [DCJW] and `ClC1=C(Cl)[C@]2(Cl)[C@@H]3[C@@H]4C[C@@H]([C@H]5O[C@@H]45)[C@@H]3[C@@]1(Cl)C2(Cl)Cl` [Dieldrin] cannot be ordered by IC50: greater than 21300 nM for the first, greater than 26500 nM for the second.

`ClC1=C(Cl)C2(Cl)C3C4CC(C5OC45)C3C1(Cl)C2(Cl)Cl` (centres unmarked) [Endrin] and `CC(C)C(C(=O)OC(C#N)c1cccc(Oc2ccccc2)c1)c1ccc(Cl)cc1` (centres unmarked) [Fenvalerate] cannot be ordered by IC50: greater than 26500 nM for the first, greater than 23900 nM for the second.

`N#Cc1nn(-c2c(Cl)cc(C(F)(F)F)cc2Cl)c(N)c1[S+]([O-])C(F)(F)F` (centres unmarked) [Fipronil] and `CC(C)(C)N(NC(=O)c1ccc(Cl)cc1)C(=O)c1ccccc1` [Halofenozide] cannot be ordered by IC50: greater than 22900 nM for the first, greater than 30300 nM for the second.

`O=[N+]([O-])NC1=NCCN1Cc1ccc(Cl)nc1` [Imidacloprid] and `COC(=O)N(C(=O)N1CO[C@@]2(C(=O)OC)Cc3cc(Cl)ccc3C2=N1)c1ccc(OC(F)(F)F)cc1` [Indoxacarb] cannot be ordered by IC50: greater than 19800 nM for the first, greater than 19000 nM for the second.

`CCN(CC)c1nc(C)cc(OP(=S)(OC)OC)n1` [Pirimiphos-methyl] and `COC1CCC2(CC1)NC(=O)C(c1cc(C)ccc1C)=C2O` (centres unmarked) [Spirotetramat enol] cannot be ordered by IC50: greater than 32800 nM for the first, greater than 33200 nM for the second.

Compared with `CCc1ccc(C(=O)NN(C(=O)c2cc(C)cc(C)c2)C(C)(C)C)cc1` [Tebufenozide], `CC(C)=CC1C(C(=O)OCN2C(=O)C3=C(CCCC3)C2=O)C1(C)C` (centres unmarked) [Tetramethrin] is lower in IC50: greater than 28400 nM for the first, 17400 nM for the second.

First: Emamectin Benzoate
Second: Spinosad
The IC50 of the first is lower: 11300 nM for the first, greater than 13700 nM for the second. The first is the more potent here.

same assay, conditions: Lucilia sericata head membrane, 9 nM [3H]-A1; read-out: IC50 Displacement Values of [3H]-A1

Compared with `CCS(=N)(=O)c1cc(C(F)(F)F)cnc1-c1nc2cc(C(F)(F)F)cnc2n1C` (centres unmarked) [VAChT-1], `CC[S@](=N)(=O)c1cc(OC(C)(C)C#N)cnc1-c1nc2cc(C(F)(F)F)cnc2n1C` [VAChT-27] is 4-fold lower in IC50: 100 nM for the first, 25 nM for the second. The second is the more potent here.

First: CCS(=O)(=O)c1cc(C2(C#N)CC2)cnc1-c1nc2cc(C(F)(F)F)cnc2n1C [VAChT-7]
Second: CC[S@@](=N)(=O)c1cc(C2(C#N)CC2)cnc1-c1nc2cc(C(F)(F)F)ncc2n1C [VAChT-34]
The IC50 of the first is 5-fold lower: 8 nM for the first, 40 nM for the second.

Compared with `CCS(=O)(=O)c1cccnc1-c1nc2cc(S(=O)(=O)C(F)(F)F)ccc2o1` [VAChT-13], `CCS(=O)(=O)c1ccc(-n2cncn2)nc1-c1nc2cc(C(F)(F)F)cnc2n1C` [VAChT-16] is 5-fold higher in IC50: 2 nM for the first, 10 nM for the second.

First: CCS(=O)(=O)c1c(-c2nc3cc(C(F)(F)F)cnc3n2C)nc2ccc(C(F)(F)F)cn12 [VAChT-19]
Second: CCS(=N)(=O)c1cc(C2(C#N)CC2)cnc1-c1nc2cc(C(F)(F)F)nnc2n1C (centres unmarked) [VAChT-35]
The IC50 of the first is 40-fold lower: 2 nM for the first, 79 nM for the second. The first is the more potent here.

`CCS(=O)(=O)c1cc(C2(C#N)CC2)cnc1-c1nc2cc3c(cc2n1C)OC(F)(F)O3` [VAChT-20] gave an IC50 of 4 nM.

same assay, conditions: read-out: Affinity at the [3H]-A1 binding site, competitive displacement; Lucilia head membrane, 9 nM [3H]-A1

`CCS(=O)(=O)c1cccnc1-c1nc2cc(S(=O)(=O)C(F)(F)F)ccc2o1` [B1] showed an IC50 of 2 nM.

same assay, conditions: read-out: [3H]-A1 displacement IC50

`CN/C(=N/CC1CCOC1)N[N+](=O)[O-]` (centres unmarked) [Dinotofuran] showed an IC50 greater than 49500 nM.

test system: Resistant Nilaparvata lugens; assay: Resistant Nilaparvata lugens (rNIL); type: in vivo; conditions: collected 2005, Karnataka, India
Experimental: Rice plants were treated with the diluted test solutions in a spray chamber. After drying, plants were infested with ~20 Nilaparvata lugens nymphs (N5). 7 days after the treatment samples were assessed for mortality. The adults were then removed and 15 days after the treatment samples were assessed for effect on F1 generation.
Resistant Nilaparvata lugens (rNIL)
Originally collected from Hosa-Hally, Karnataka district, India in 2005.

`CN1COCN(Cc2cnc(Cl)s2)/C1=N\[N+](=O)[O-]` [Thiamethoxam] and `CN/C(=N\[N+](=O)[O-])NCc1cnc(Cl)s1` [clothianidin] are the same in “resistance of the rNIL strain to the insecticide” value: 200 fold for the first, 200 fold for the second.

`CCN(Cc1ccc(Cl)nc1)/C(=C/[N+](=O)[O-])NC` [nitenpyram] was tested, and the “resistance of the rNIL strain to the insecticide” value was 30 fold.

test system: Resistant Myzus persicae; assay: Resistant Myzus persicae (rMP); type: in vivo; conditions: field-collected 2009, Southern France
Experimental: Pepper plants were infested with an Myzus persicae population of mixed ages. One day after infestation the plants were treated with the diluted test solutions in a spray chamber. 5 days after treatment samples were assessed for mortality.

In the case of `CC1(C)[C@H](C(=O)O[C@H](C#N)c2cccc(Oc3ccccc3)c2)[C@@H]1/C=C(\Cl)C(F)(F)F` (racemic) [Lambda-cyhalothrin], the “resistance of the rMP population to the insecticide” value is reported as greater than 5000 fold.
